Measurements: ChEMBL document CHEMBL1146481, “Rediocides B-E, potent insecticides from Trigonostemon reidioides” (2004)

Test system: Ctenocephalides felis
Test: Insecticidal activity against Ctenocephalides felis by anti-flea artificial membrane feeding system
Type: functional

SMILES | LD90
C[C@@H]1[C@@H]2OC3(c4ccccc4)O[C@@H]4[C@@H]5[C@@H]6O[C@]6(C)[C@@H](O)[C@@]6(O)[C@@H](C[C@H](C)[C@@H]6OC(=O)/C=C/[C@@H]6O[C@H]6[C@H](OC(=O)c6ccccc6)C6CCC(CC6)C[C@@](C)(O)[C@@]42O)[C@]51O3 [REDIOCIDE D] | 0.25 ppm
CC(C)CC(=O)O[C@H]1/C=C/C=C/C(=O)O[C@H]2[C@@H](C)C[C@@H]3[C@]2(O)[C@H](O)[C@@]2(CO)O[C@H]2[C@H]2[C@H]4OC5(c6ccccc6)O[C@@H]([C@@H](C)[C@@]23O5)[C@@]4(O)[C@](C)(O)C[C@H]2CC[C@H]1[C@H]2C [REDIOCIDE A] | 0.25 ppm
CC(C)CC(=O)O[C@H]1/C=C/C=C/C(=O)O[C@H]2CC[C@@H]3[C@]2(O)[C@H](O)[C@@]2(CO)O[C@H]2[C@H]2[C@H]4OC5(c6ccccc6)O[C@@H]([C@@H](C)[C@@]23O5)[C@@]4(O)[C@](C)(O)C[C@H]2CC[C@H]1[C@H]2C [REDIOCIDE E] | 0.5 ppm
C[C@H]1[C@@H]2CC[C@@H]1[C@@H](OC(=O)c1ccccc1)/C=C/C=C/C(=O)O[C@H]1[C@@H](C)C[C@@H]3[C@]1(O)[C@H](O)[C@@]1(CO)O[C@H]1[C@H]1[C@H]4OC5(c6ccccc6)O[C@@H]([C@@H](C)[C@@]13O5)[C@@]4(O)[C@](C)(O)C2 [REDIOCIDE C] | 0.5 ppm
CC(C)CC(=O)O[C@H]1/C=C/C=C/C(=O)O[C@H]2[C@@H](C)C[C@@H]3[C@]2(O)[C@H](O)[C@@]2(CO)O[C@H]2[C@H]2[C@H]4OC5(c6ccccc6)O[C@@H]([C@@H](C)[C@@]23O5)[C@@]4(O)[C@](C)(O)CC2CCC1CC2 [REDIOCIDE B] | 0.25 ppm
